The results in this text go back to US4639433A, “Glycopeptide derivatives” (Eli Lilly and Company, priority 1985, dated 1987).

Molecules are shown by their SMILES. Converted amounts (≈) assume the structure as drawn.

Assay [1] has as its system Staphylococcus aureus S13E. To be noted: agar dilution.
Assay [2] concerns Haemophilus influenzae 76. To be noted: agar dilution.
The test system of assay [3] is Streptococcus pyogenes C203. To be noted: agar dilution.
Assay [4] concerns Escherichia coli TEM. To be noted: agar dilution.
Assay [5] deals with Haemophilus influenzae C.L. To be noted: agar dilution.
Assay [6] has as its system Escherichia coli EC14. The conditions noted are these: agar dilution.
Assay [7] concerns Streptococcus pneumoniae. Description: Experimental bacterial infection in mice, ED50. Format: in vivo. To be noted: two doses, administered subcutaneously.
In assay [8] the test system is Staphylococcus aureus V41. The conditions noted are these: agar dilution.
Assay [9] relates to Streptococcus pneumoniae Park 1. The conditions noted are these: agar dilution.
The test system of assay [10] is Staphylococcus aureus. Description: Experimental bacterial infection in mice, ED50. Format: in vivo. To be noted: two doses, administered subcutaneously.
Assay [11] has as its system Escherichia coli N10. The conditions noted are these: agar dilution.
The test system of assay [12] is Streptococcus sp. group D 2041. The conditions noted are these: agar dilution.
The subject of assay [13] is Staphylococcus epidermidis 222. The conditions noted are these: agar dilution.
In assay [14] the test system is Klebsiella pneumoniae X26. To be noted: agar dilution.
In assay [15] the test system is Streptococcus pyogenes. In words: Experimental bacterial infection in mice, ED50. Format: in vivo. To be noted: two doses, administered subcutaneously.
Assay [16] deals with Staphylococcus aureus NRRL B313. The conditions noted are these: agar dilution.
Assay [17] deals with Staphylococcus epidermidis EPI1. To be noted: agar dilution.
The test system of assay [18] is Klebsiella pneumoniae X68. To be noted: agar dilution.
Assay [19] relates to Staphylococcus aureus X400. To be noted: agar dilution.
The subject of assay [20] is Streptococcus faecium ATCC 9790. The conditions noted are these: agar dilution.
Assay [21] relates to Klebsiella pneumoniae KAE. To be noted: agar dilution.

As for `CCCCCCCCCC(=O)NC1(C)CC(OC2C(Oc3c4cc5cc3Oc3ccc(cc3Cl)C(O)C3NC(=O)C(NC(=O)C5NC(=O)C(CC(N)=O)NC(=O)C(NC(=O)C(CC(C)C)NC)C(O)c5ccc(c(Cl)c5)O4)c4ccc(O)c(c4)-c4c(O)cc(O)cc4C(C(=O)O)NC3=O)OC(CO)C(O)C2O)OC(C)C1O` (stereo not drawn) [Compound 6, N^van-(1-oxo-n-Decyl)vancomycin], the MIC is 0.5 µg/mL (≈ 0.312 µM) in [1]; “-- (not active at 128 mcg/ml)” in [2]; 0.5 µg/mL (≈ 0.312 µM) in [3]; “-- (not active at 128 mcg/ml)” in assay [4]; “-- (not active at 128 mcg/ml)” in assay [5]; “-- (not active at 128 mcg/ml)” in [6]. Also, the MIC was 0.5 µg/mL (≈ 0.312 µM) in [8]; 1 µg/mL (≈ 0.624 µM) in assay [9]; “-- (not active at 128 mcg/ml)” in assay [11]; 1 µg/mL (≈ 0.624 µM) in assay [12]; 1 µg/mL (≈ 0.624 µM) in [13]; “-- (not active at 128 mcg/ml)” in assay [14]. Further, the MIC in [16] is 0.5 µg/mL (≈ 0.312 µM); in assay [17] it was 2 µg/mL (≈ 1.25 µM); in assay [18], “-- (not active at 128 mcg/ml)”; in [19], 0.5 µg/mL (≈ 0.312 µM); in assay [20], 0.5 µg/mL (≈ 0.312 µM); in assay [21], “-- (not active at 128 mcg/ml)”. Besides, the ED50 in [7] was determined as 1.4 mg/kg/2; in assay [10], 5 mg/kg/2; in assay [15], 2.9 mg/kg/2.

In the case of `CCCCCCCCCCCC(=O)NC1(C)CC(OC2C(Oc3c4cc5cc3Oc3ccc(cc3Cl)C(O)C3NC(=O)C(NC(=O)C5NC(=O)C(CC(N)=O)NC(=O)C(NC(=O)C(CC(C)C)NC)C(O)c5ccc(c(Cl)c5)O4)c4ccc(O)c(c4)-c4c(O)cc(O)cc4C(C(=O)O)NC3=O)OC(CO)C(O)C2O)OC(C)C1O` (stereo not drawn) [Compound 12, N^van --(1-oxo-n-dodecyl)vancomycin], the MIC in [1] was 0.5 µg/mL (≈ 0.306 µM); in assay [2], “-- (not active at 128 mcg/ml)”; in assay [3], 0.5 µg/mL (≈ 0.306 µM); in [4], “-- (not active at 128 mcg/ml)”; in assay [5], “-- (not active at 128 mcg/ml)”; in assay [6], “-- (not active at 128 mcg/ml)”. Besides, the MIC in assay [8] was 0.25 µg/mL (≈ 0.153 µM); in assay [9] it was 0.5 µg/mL (≈ 0.306 µM); in [11], “-- (not active at 128 mcg/ml)”; in [12], 0.5 µg/mL (≈ 0.306 µM); in assay [13], 0.5 µg/mL (≈ 0.306 µM); in assay [14], “-- (not active at 128 mcg/ml)”. Besides, the MIC in assay [16] was 0.25 µg/mL (≈ 0.153 µM); in assay [17], 2 µg/mL (≈ 1.23 µM); in [18] it was “-- (not active at 128 mcg/ml)”; in assay [19], 0.5 µg/mL (≈ 0.306 µM); in assay [20] it was 0.5 µg/mL (≈ 0.306 µM); in assay [21], “-- (not active at 128 mcg/ml)”. Moreover, the ED50 is reported as 0.9 mg/kg/2 in assay [7], 6.8 mg/kg/2 in assay [10] and 1.6 mg/kg/2 in [15].

Consider `CCCCCC(=O)NC1(C)CC(OC2C(Oc3c4cc5cc3Oc3ccc(cc3Cl)C(O)C3NC(=O)C(NC(=O)C5NC(=O)C(CC(N)=O)NC(=O)C(NC(=O)C(CC(C)C)NC)C(O)c5ccc(c(Cl)c5)O4)c4ccc(O)c(c4)-c4c(O)cc(O)cc4C(C(=O)O)NC3=O)OC(CO)C(O)C2O)OC(C)C1O` (stereo not drawn) [Compound 2, N^van --(1-oxo-n-hexyl)vancomycin], for which the MIC was 4 µg/mL (≈ 2.58 µM) in assay [1]; 128 µg/mL (≈ 82.7 µM) in [2]; 2 µg/mL (≈ 1.29 µM) in assay [3]; “-- (not active at 128 mcg/ml)” in assay [4]; “-- (not active at 128 mcg/ml)” in assay [5]; “-- (not active at 128 mcg/ml)” in assay [6]. Further, the MIC in assay [8] was 4 µg/mL (≈ 2.58 µM); in assay [9], 2 µg/mL (≈ 1.29 µM); in assay [11], “-- (not active at 128 mcg/ml)”; in assay [12], 16 µg/mL (≈ 10.3 µM); in assay [13] it was 8 µg/mL (≈ 5.17 µM); in assay [14] it was “-- (not active at 128 mcg/ml)”. Besides, the MIC in [16] is 2 µg/mL (≈ 1.29 µM); in assay [17], 16 µg/mL (≈ 10.3 µM); in assay [18] it was “-- (not active at 128 mcg/ml)”; in assay [19], 4 µg/mL (≈ 2.58 µM); in [20], 4 µg/mL (≈ 2.58 µM); in assay [21], “-- (not active at 128 mcg/ml)”. In addition, the ED50 in assay [7] is on record as 3.5 mg/kg/2; in [10], 11.2 mg/kg/2; in assay [15], 12.9 mg/kg/2.

On to `CCCC(=O)NC1(C)CC(OC2C(Oc3c4cc5cc3Oc3ccc(cc3Cl)C(O)C3NC(=O)C(NC(=O)C5NC(=O)C(CC(N)=O)NC(=O)C(NC(=O)C(CC(C)C)NC)C(O)c5ccc(c(Cl)c5)O4)c4ccc(O)c(c4)-c4c(O)cc(O)cc4C(C(=O)O)NC3=O)OC(CO)C(O)C2O)OC(C)C1O` (stereo not drawn) [Compound 1, N^van --(1-oxo-n-butyl)vancomycin], for which the MIC in assay [1] is 2 µg/mL (≈ 1.32 µM); in assay [2], “-- (not active at 128 mcg/ml)”; in assay [3] it was 1 µg/mL (≈ 0.658 µM); in assay [4], “-- (not active at 128 mcg/ml)”; in assay [5], “-- (not active at 128 mcg/ml)”; in [6], “-- (not active at 128 mcg/ml)”. For the same compound, the MIC in assay [8] was 2 µg/mL (≈ 1.32 µM); in [9], 1 µg/mL (≈ 0.658 µM); in assay [11] it was “-- (not active at 128 mcg/ml)”; in assay [12] it was 8 µg/mL (≈ 5.27 µM); in assay [13], 4 µg/mL (≈ 2.63 µM); in assay [14], “-- (not active at 128 mcg/ml)”. The MIC in assay [16] is 2 µg/mL (≈ 1.32 µM); in assay [17], 8 µg/mL (≈ 5.27 µM); in assay [18], “-- (not active at 128 mcg/ml)”; in assay [19], 2 µg/mL (≈ 1.32 µM); in assay [20], 2 µg/mL (≈ 1.32 µM); in [21], “-- (not active at 128 mcg/ml)”. For the same compound, the figures for the ED50 in [7], in assay [10] and in [15] were 3.6 mg/kg/2, 6.3 mg/kg/2 and 5.5 mg/kg/2, respectively.

With `C=CCCCCCCCCC(=O)NC1(C)CC(OC2C(Oc3c4cc5cc3Oc3ccc(cc3Cl)C(O)C3NC(=O)C(NC(=O)C5NC(=O)C(CC(N)=O)NC(=O)C(NC(=O)C(CC(C)C)NC)C(O)c5ccc(c(Cl)c5)O4)c4ccc(O)c(c4)-c4c(O)cc(O)cc4C(C(=O)O)NC3=O)OC(CO)C(O)C2O)OC(C)C1O` (stereo not drawn) [Compound 9, N^van --(1-oxo-10-n-decenyl)vancomycin], the MIC in assay [1] is 0.5 µg/mL (≈ 0.309 µM); in assay [2], 128 µg/mL (≈ 79.2 µM); in assay [3] it was 0.25 µg/mL (≈ 0.155 µM); in assay [4], “-- (not active at 128 mcg/ml)”; in assay [5], “-- (not active at 128 mcg/ml)”; in assay [6] it was “-- (not active at 128 mcg/ml)”. Further, the MIC in assay [8] is 0.5 µg/mL (≈ 0.309 µM); in assay [9] it was 0.25 µg/mL (≈ 0.155 µM); in assay [11], “-- (not active at 128 mcg/ml)”; in assay [12] it was 1 µg/mL (≈ 0.619 µM); in assay [13], 0.5 µg/mL (≈ 0.309 µM); in assay [14], “-- (not active at 128 mcg/ml)”. Also, the MIC in [16] is 0.5 µg/mL (≈ 0.309 µM); in assay [17] it was 2 µg/mL (≈ 1.24 µM); in assay [18], “-- (not active at 128 mcg/ml)”; in assay [19], 0.5 µg/mL (≈ 0.309 µM); in assay [20], 0.25 µg/mL (≈ 0.155 µM); in assay [21] it was “-- (not active at 128 mcg/ml)”. The ED50 is reported as 1.8 mg/kg/2 in assay [7], 3.7 mg/kg/2 in assay [10] and 1.9 mg/kg/2 in assay [15].

On to `CN[C@H](CC(C)C)C(=O)N[C@H]1C(=O)N[C@@H](CC(N)=O)C(=O)N[C@H]2C(=O)N[C@H]3C(=O)N[C@H](C(=O)N[C@H](C(=O)O)c4cc(O)cc(O)c4-c4cc3ccc4O)[C@H](O)c3ccc(c(Cl)c3)Oc3cc2cc(c3O[C@@H]2O[C@H](CO)[C@@H](O)[C@H](O)[C@H]2O[C@H]2C[C@](C)(N)[C@H](O)[C@H](C)O2)Oc2ccc(cc2Cl)[C@H]1O` [vancomycin, reference compound], for which the ED50 in assay [7] is 0.90-0.93 mg/kg/2; in assay [10], 1.8-3.7 mg/kg/2; in assay [15], 0.99-1.1 mg/kg/2.
